Where two headings read alike, the source gives them in different places.

Results on 25 molecules are retold here after patent US10669272B2, “Substituted naphthyridinone compounds useful as T cell activators” (BRISTOL-MYERS SQUIBB COMPANY, priority 2018, dated 2020).

The target of one assay is T1, human DGKζ (Homo sapiens, UniProt Q13574).
T1 construct: TVMV protease cleavage site (C); Hexa-His (C); made in house; host or cells: Sf9 insect cells (baculovirus, Bac-to-Bac)
Description: DGKζ LIPGLO assay (extruded liposome substrate), in vitro DGK inhibition. Particulars: liposome (LIPGLO) assay; read-out: DGKz LIPGLO IC50. Format: biochemical.

The target of another assay is T2, human DGKα (Homo sapiens, UniProt P23743).
T2 construct: TVMV protease cleavage site (C); Hexa-His (C); made in house; host or cells: Sf9 insect cells (baculovirus, Bac-to-Bac)
The assay can be described thus: DGKα LIPGLO assay (extruded liposome substrate), in vitro DGK inhibition. In kind it is biochemical. Particulars: liposome (LIPGLO) assay; read-out: DGKa LIPGLO IC50.

In another assay the test system is Human venous whole blood. The assay can be described thus: Human whole blood IFN-γ assay.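 Note: blood from healthy donors exposed to compound for 1 h before stimulation with anti-CD3 and anti-CD28 at 1 µg/mL each, IFN-γ quantified in supernatant by AlphaLISA.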 Particulars: human whole blood, normalized to 3 μM reference compound with anti-CD3 plus anti-CD28 as 100% activation, read-out: INFg Whole Blood Normalized Agonist EC50. In kind it is cell-based.

T2 sequence (P23743 with tags, fused parts or gaps): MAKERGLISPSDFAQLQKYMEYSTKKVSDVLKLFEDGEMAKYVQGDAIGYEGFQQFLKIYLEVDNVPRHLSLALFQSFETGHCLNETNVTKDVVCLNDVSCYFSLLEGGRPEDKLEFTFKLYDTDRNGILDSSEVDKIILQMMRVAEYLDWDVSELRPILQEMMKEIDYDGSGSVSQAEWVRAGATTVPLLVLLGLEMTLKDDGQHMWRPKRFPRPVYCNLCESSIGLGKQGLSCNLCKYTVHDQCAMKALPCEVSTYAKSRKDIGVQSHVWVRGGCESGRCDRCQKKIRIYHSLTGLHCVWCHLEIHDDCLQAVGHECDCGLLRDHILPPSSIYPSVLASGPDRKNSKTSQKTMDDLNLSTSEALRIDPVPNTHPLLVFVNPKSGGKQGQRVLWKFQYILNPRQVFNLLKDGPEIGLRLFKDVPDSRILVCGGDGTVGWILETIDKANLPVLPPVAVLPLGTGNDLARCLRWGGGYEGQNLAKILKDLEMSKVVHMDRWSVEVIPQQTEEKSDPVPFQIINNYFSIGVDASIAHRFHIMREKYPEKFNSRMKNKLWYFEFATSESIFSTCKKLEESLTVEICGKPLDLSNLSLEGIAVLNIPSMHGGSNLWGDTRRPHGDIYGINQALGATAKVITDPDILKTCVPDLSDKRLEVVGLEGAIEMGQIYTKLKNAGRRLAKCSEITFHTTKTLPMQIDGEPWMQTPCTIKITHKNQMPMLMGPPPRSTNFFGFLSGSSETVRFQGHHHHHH
T1 sequence (Q13574 with tags, fused parts or gaps isoform Q13574-4): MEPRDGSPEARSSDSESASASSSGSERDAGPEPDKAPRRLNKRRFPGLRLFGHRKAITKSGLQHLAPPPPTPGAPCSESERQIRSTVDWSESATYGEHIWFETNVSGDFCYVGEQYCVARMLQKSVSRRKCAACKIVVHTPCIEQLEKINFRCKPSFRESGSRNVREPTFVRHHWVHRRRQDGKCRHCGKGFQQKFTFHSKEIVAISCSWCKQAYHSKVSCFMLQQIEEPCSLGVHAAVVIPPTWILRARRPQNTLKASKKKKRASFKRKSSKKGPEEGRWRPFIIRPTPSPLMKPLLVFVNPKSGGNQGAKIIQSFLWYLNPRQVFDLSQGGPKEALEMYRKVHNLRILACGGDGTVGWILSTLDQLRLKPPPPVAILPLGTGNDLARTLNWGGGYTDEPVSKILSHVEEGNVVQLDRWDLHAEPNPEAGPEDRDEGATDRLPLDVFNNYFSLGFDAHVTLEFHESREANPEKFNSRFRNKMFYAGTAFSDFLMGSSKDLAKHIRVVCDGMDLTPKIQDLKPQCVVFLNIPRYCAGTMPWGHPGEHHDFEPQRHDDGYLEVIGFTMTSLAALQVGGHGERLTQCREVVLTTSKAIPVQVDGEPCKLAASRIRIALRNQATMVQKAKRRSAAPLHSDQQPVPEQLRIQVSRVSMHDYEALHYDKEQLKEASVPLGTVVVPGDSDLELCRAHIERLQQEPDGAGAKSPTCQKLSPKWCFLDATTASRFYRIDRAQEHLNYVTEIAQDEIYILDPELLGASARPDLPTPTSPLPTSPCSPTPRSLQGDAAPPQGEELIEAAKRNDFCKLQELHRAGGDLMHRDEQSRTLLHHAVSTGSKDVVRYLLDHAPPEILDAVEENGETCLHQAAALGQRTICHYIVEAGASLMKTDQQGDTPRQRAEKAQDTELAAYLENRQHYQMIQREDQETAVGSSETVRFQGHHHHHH
Description for Human venous whole blood: Human Whole Blood IFN-γ Assay
Human venous whole blood (22.5 μL per well), obtained from healthy donors, was pre-treated with compounds for one hour at 37° C. in a humidified 95% air/5% CO2 incubator. The blood was stimulated with 2.5 μL anti-human CD3 and anti-CD28 mAb at a final concentration of 1 μg/mL each for 24 hours at 37° C. IFN-γ in the supernatants was measured using AlphLISA kit (Cat # AL217).

In general, IC50 refers to the concentration that gives 50% inhibition. Usually EC50 stands for the concentration at which the effect is half-maximal. For the molecule `COCC(F)(F)C(c1ccc(F)cc1)N1C[C@H](C)N(c2cc(=O)n(C)c3ccc(C#N)nc23)C[C@H]1C` (single isomer, unassigned) [Example 1313], the 50% inhibitory concentration (IC50) is 5300 nM at human DGKζ and 2200 nM at human DGKα. The EC50 with Human venous whole blood (Homo sapiens, 24 h) amounted to 4800 nM.
Take `COCc1cc(F)ccc1C(C)N1C[C@H](C)N(c2cc(=O)n(C)c3ccc(C#N)nc23)C[C@H]1C` (single isomer, unassigned) [Example 1314]: the IC50 turned out to be 49 nM at human DGKζ and 10000 nM at human DGKα. In the assay with Human venous whole blood (Homo sapiens, 24 h), the EC50 was 460 nM.
The matching figures for `COCc1cc(F)ccc1C(C)N1C[C@H](C)N(c2cc(=O)n(C)c3ccc(C#N)nc23)C[C@H]1C` (single isomer, unassigned) [Example 1315]: 1400 nM, 79000 nM and 20000 nM.
The matching figures for `COCc1cc(C(C)N2C[C@H](C)N(c3cc(=O)n(C)c4ccc(C#N)nc34)C[C@H]2C)ccc1F` (single isomer, unassigned) [Example 1316]: 18 nM, 1800 nM and 4500 nM.
For `COCc1cc(C(C)N2C[C@H](C)N(c3cc(=O)n(C)c4ccc(C#N)nc34)C[C@H]2C)ccc1F` (single isomer, unassigned) [Example 1317], the IC50 at human DGKζ is 970 nM; at human DGKα, 8000 nM. Further, the EC50 in the assay with Human venous whole blood came to 2900 nM.
On to `CSCC(c1ccc(F)cc1)N1C[C@H](C)N(c2cc(=O)n(C)c3ccc(C#N)nc23)C[C@H]1C` (single isomer, unassigned) [Example 1318], for which the results for the IC50 on human DGKζ and at human DGKα were 34 nM and 6.2 nM, respectively. For the same molecule, in the assay on Human venous whole blood (Homo sapiens, 24 h), the EC50 was determined as 88 nM.
The matching figures for `COCCOc1cc(C(C)N2C[C@H](C)N(c3cc(=O)n(C)c4ccc(C#N)nc34)C[C@H]2C)ccc1C#N` (single isomer, unassigned) [Example 1320]: 160 nM, 75000 nM and 7000 nM.
The matching figures for `COCCOc1cc(C(C)N2C[C@H](C)N(c3cc(=O)n(C)c4ccc(C#N)nc34)C[C@H]2C)ccc1C#N` (single isomer, unassigned) [Example 1321]: 310 nM, 7500 nM and 3000 nM.
For `CC(C)Oc1ccc(C(C)N2C[C@H](C)N(c3cc(=O)n(C)c4ccc(C#N)nc34)C[C@H]2C)cn1` (single isomer, unassigned) [Example 1324], the IC50 amounted to 140 nM on human DGKζ and 12000 nM at human DGKα. Further, the EC50 in the assay with Human venous whole blood worked out at 690 nM.
Taken in the same sequence, the figures for `CC(C)Oc1ccc(C(C)N2C[C@H](C)N(c3cc(=O)n(C)c4ccc(C#N)nc34)C[C@H]2C)cn1` (single isomer, unassigned) [Example 1325] were 910 nM, 1300 nM and 1800 nM.
The matching figures for `C[C@@H]1CN(c2cc(=O)n(C)c3ccc(C#N)nc23)[C@@H](C)CN1C(Cc1nc(C2CC2)no1)c1ccc(F)cc1` (single isomer, unassigned) [Example 1326]: 470 nM, 1200 nM and 1700 nM.
The matching figures for `C[C@@H]1CN(c2cc(=O)n(C)c3ccc(C#N)nc23)[C@@H](C)CN1C(Cc1nc(C2CC2)no1)c1ccc(F)cc1` (single isomer, unassigned) [Example 1327]: 290 nM, 200 nM and 180 nM.
For `CC[C@@H]1CN(c2c(F)c(=O)n(C)c3ccc(C#N)nc23)[C@@H](C)CN1C(C)c1ccc(OC(F)(F)F)cc1` (single isomer, unassigned) [Example 1328], the values for the half-inhibitory concentration (IC50) on human DGKζ and at human DGKα were 1500 nM and 4900 nM, respectively. In the assay with Human venous whole blood (Homo sapiens, 24 h), the EC50 came out at 3400 nM.
As to `CC[C@@H]1CN(c2c(F)c(=O)n(C)c3ccc(C#N)nc23)[C@@H](C)CN1C(C)c1ccc(OC(F)(F)F)cc1` (single isomer, unassigned) [Example 1329], the figures for the IC50 at human DGKζ and on human DGKα were 26000 nM and 1500 nM, respectively. For the same molecule, the EC50 in the assay on Human venous whole blood came out at 3600 nM.
For the molecule `C[C@@H]1CN(c2cc(=O)n(C)c3ccc(C#N)nc23)[C@@H](C)CN1C(c1ccc(F)cc1)c1csc(C(F)(F)F)n1` (single isomer, unassigned) [Example 1333], the IC50 was determined as 160 nM at human DGKζ and 370 nM at human DGKα. For the same molecule, the EC50 with Human venous whole blood (Homo sapiens, 24 h) is 310 nM.
In the case of `C[C@@H]1CN(c2cc(=O)n(C)c3ccc(C#N)nc23)[C@@H](C)CN1C(c1ccc(F)cc1)c1csc(C(F)(F)F)n1` (single isomer, unassigned) [Example 1334], the results for the IC50 at human DGKζ and on human DGKα were 140 nM and 110 nM, respectively. Besides, the EC50 in the assay on Human venous whole blood stood at 260 nM.
For the molecule `C[C@@H]1CN(c2cc(=O)[nH]c3ccc(C#N)nc23)[C@@H](C)CN1C(c1ccc(F)cc1)c1ccc(C#N)cc1` (single isomer, unassigned) [Example 1337], the IC50 at human DGKζ came to 8200 nM; on human DGKα, 1800 nM. Also, in the assay with Human venous whole blood (Homo sapiens, 24 h), the EC50 amounted to 2700 nM.
On to `CC[C@@H]1CN(c2cc(=O)n(C)c3ccc(C#N)nc23)[C@@H](C)CN1C(c1ccc(F)cc1)c1nc(C2CC2)cs1` (single isomer, unassigned) [Example 1338], for which the figures for the IC50 on human DGKζ and at human DGKα were 29 nM and 69 nM, respectively. In the assay with Human venous whole blood (Homo sapiens, 24 h), the EC50 was determined as 130 nM.
With `CC[C@@H]1CN(c2cc(=O)n(C)c3ccc(C#N)nc23)[C@@H](C)CN1C(c1ccc(F)cc1)c1nc(C2CC2)cs1` (single isomer, unassigned) [Example 1339], the IC50 was 160 nM at human DGKζ and 270 nM on human DGKα. The EC50 in the assay with Human venous whole blood was 100 nM.
Consider `CC[C@@H]1CN(c2cc(=O)n(C)c3ccc(C#N)nc23)[C@@H](C)CN1C(C)c1ccc(C2CC2)cc1F` (single isomer, unassigned) [Example 1340], for which the values for the IC50 on human DGKζ and at human DGKα were 40 nM and 630 nM, respectively. Also, in the assay with Human venous whole blood, the EC50 amounted to 80 nM.
Taken in the same sequence, the figures for `CC[C@@H]1CN(c2cc(=O)n(C)c3ccc(C#N)nc23)[C@@H](C)CN1C(C)c1ccc(C2CC2)cc1F` (single isomer, unassigned) [Example 1341] were 1400 nM, 4400 nM and 2000 nM.
Taken in the same sequence, the figures for `CC[C@@H]1CN(c2cc(=O)n(C)c3ccc(C#N)nc23)[C@@H](C)CN1C(C)c1ccc(C#N)cc1` (single isomer, unassigned) [Example 1345] were 75 nM, 41 nM and 480 nM.
Turning to `CC[C@@H]1CN(c2cc(=O)n(C)c3ccc(C#N)nc23)[C@@H](C)CN1C(C)c1ccc(C#N)cc1` (single isomer, unassigned) [Example 1346], the IC50 amounted to 450 nM at human DGKζ and 52 nM at human DGKα. Besides, the EC50 in the assay with Human venous whole blood turned out to be 6000 nM.
The matching figures for `CC[C@@H]1CN(c2cc(=O)n(C)c3ccc(C#N)nc23)[C@@H](C)CN1C(C)c1ccc(OC(C)C)cc1` (single isomer, unassigned) [Example 1348]: 15 nM, 110 nM and 29 nM.
Taken in the same sequence, the figures for `CC[C@@H]1CN(c2cc(=O)n(C)c3ccc(C#N)nc23)[C@@H](C)CN1C(C)c1ccc(OC(C)C)cc1` (single isomer, unassigned) [Example 1349] were 2200 nM, 5400 nM and 580 nM.
